Data set [1] has as its system Mycobacterium tuberculosis. Nature of the data set: Antimicrobial activity against Mycobacterium tuberculosis H37Rv after 48 hrs by resazurin microplate broth microdilution method. The class given is functional. Background: Resazurin is reduced to fluorescent resorufin, in cell work by metabolically active cells.
Data set [2] can be described thus: Cytotoxicity against african green monkey Vero cells after 72 hrs by MTT assay. The class given is cell-based. The following applies: chlorocebus sabaeus. Background: Tetrazolium dyes change colour on reduction, which living cells bring about.
Data set [3] is described as follows: Selectivity index, ratio of CC50 for african green monkey Vero cells to MIC for Mycobacterium tuberculosis H37Rv. The class given is functional.
Data set [4] has as its system Mycobacterium tuberculosis. Nature of the data set: Antimicrobial activity against Mycobacterium tuberculosis H37Rv after 48 hrs by resazurin microplate broth microdilution method in presence of rifampicin. The class given is functional.

`O=C(/C=C/c1ccc(Cl)cc1)NCCNC(=O)/C=C/c1ccc(Cl)cc1`: the MIC (as a rule, the lowest concentration that inhibits growth of the organism) in data set [1] was found to be 129 µM. Besides, the CC50 (usually the concentration that lowers cell viability or growth by half) at 72 h in data set [2] came to 788 µM. Besides, in data set [3], the “Selectivity Index” value stood at 6.

`O=C(/C=C/c1cccc([N+](=O)[O-])c1)NCCNC(=O)/C=C/c1cccc([N+](=O)[O-])c1` came in with an MIC in data set [1] of 68.5 µM. In data set [2], this molecule showed a half-maximal cytotoxic concentration (CC50) at 72 h of 615 µM. Moreover, the “Selectivity Index” value in data set [3] was 9.

`O=C(/C=C/c1ccccc1)N1CCN(C(=O)/C=C/c2ccccc2)CC1` yielded a minimal inhibitory concentration (MIC) in data set [1] of 9 µM. Besides, the CC50 at 72 h in data set [2] was found to be 855 µM. For the same molecule, the “Selectivity Index” value in data set [3] turned out to be 95.

As for `CC[C@@H](CO)NCCN[C@@H](CC)CO` [ETHAMBUTOL], the minimal inhibitory concentration (MIC) in data set [1] is 15.3 µM. For the same molecule, the half-maximal cytotoxic concentration (CC50) at 72 h in data set [2] was determined as 1470 µM. For the same molecule, the “Selectivity Index” value in data set [3] is listed as 96.

Regarding `CO[C@H]1/C=C/O[C@@]2(C)Oc3c(C)c(O)c4c(O)c(c(/C=N/N5CCN(C)CC5)c(O)c4c3C2=O)NC(=O)/C(C)=C\C=C\[C@H](C)[C@H](O)[C@@H](C)[C@@H](O)[C@@H](C)[C@H](OC(C)=O)[C@@H]1C` [RIFAMPIN], inhibition of growth in data set [1] (MIC) required 0.125 µg/mL.

`COc1ccc(/C=C/C(=O)NCCNC(=O)/C=C/c2ccc(OC)cc2)cc1`: inhibition of growth in data set [1] (MIC) required 132 µM. This molecule displayed a CC50 at 72 h in data set [2] of 680 µM. The “Selectivity Index” value in data set [3] stood at 5.

Take `O=C(/C=C/c1ccc(Cl)c(Cl)c1)NCCNC(=O)/C=C/c1ccc(Cl)c(Cl)c1`: the MIC in data set [1] was found to be 54.8 µM. The molecule further registered a 50% cytotoxic concentration (CC50) at 72 h in data set [2] of 653 µM. For the same molecule, the “Selectivity Index” value in data set [3] turned out to be 12.

`O=C(/C=C/c1ccccc1Cl)NCCNC(=O)/C=C/c1ccccc1Cl`: the minimum inhibitory concentration (MIC) in data set [1] turned out to be 64.4 µM. In data set [2], this molecule gave a 50% cytotoxic concentration (CC50) at 72 h of 725 µM. For the same molecule, the “Selectivity Index” value in data set [3] is 11.

With `O=C(/C=C/c1c(Cl)cccc1Cl)NCCNC(=O)/C=C/c1c(Cl)cccc1Cl`, the lowest concentration to inhibit growth in data set [1] (MIC) was 54.8 µM. For the same molecule, in data set [2], the 50% cytotoxic concentration (CC50) at 72 h worked out at 653 µM. Also, the “Selectivity Index” value in data set [3] is listed as 12.

In data set [1], `O=C(/C=C/c1ccccc1)NCCNC(=O)/C=C/c1ccccc1` yielded a minimal inhibitory concentration (MIC) of 5.1 µM. In data set [2], this molecule showed a CC50 at 72 h of 618 µM. In addition, the “Selectivity Index” value in data set [3] worked out at 121. The “fractional inhibitory concentration index (FICI)” value in data set [4] was 0.31.

`O=C(/C=C/c1ccccc1)NCCN1CCN(C(=O)/C=C/c2ccccc2)CC1` came in with an MIC in data set [1] of 16.7 µM. Besides, half-maximal cytotoxicity in data set [2] (CC50 at 72 h) was put at 480 µM. Besides, the “Selectivity Index” value in data set [3] is recorded as 29.

In data set [1], `O=C(/C=C/c1ccco1)NCCNC(=O)/C=C/c1ccco1` displayed an MIC of 10.8 µM. In addition, the CC50 at 72 h in data set [2] is 683 µM. For the same molecule, the “Selectivity Index” value in data set [3] is given as 63.

Molecule `O=C(/C=C/c1cccs1)NCCNC(=O)/C=C/c1cccs1` registered an MIC in data set [1] of 9.41 µM. In data set [2], this molecule registered a cytotoxic concentration (CC50) at 72 h of 692 µM. The “Selectivity Index” value in data set [3] worked out at 74.

In data set [1], `O=C(/C=C/c1ccccc1)N1CCCN(C(=O)/C=C/c2ccccc2)CC1` registered a minimal inhibitory concentration (MIC) of 17.3 µM. In data set [2], the midpoint of cytotoxicity, the CC50 at 72 h, lay at 708 µM. For the same molecule, the “Selectivity Index” value in data set [3] amounted to 41.

With `COc1ccccc1/C=C/C(=O)NCCNC(=O)/C=C/c1ccccc1OC`, it took 65.8 µM to inhibit growth in data set [1] (MIC). Moreover, the CC50 at 72 h in data set [2] was 695 µM. For the same molecule, in data set [3], the “Selectivity Index” value amounted to 11.

`Cc1ccc(/C=C/C(=O)NCCNC(=O)/C=C/c2ccc(C)cc2)cc1` returned an MIC in data set [1] of 144 µM. Moreover, half-maximal cytotoxicity in data set [2] (CC50 at 72 h) was put at 565 µM. In addition, in data set [3], the “Selectivity Index” value amounted to 4.
